Here are results for one compound from article PMC8667925, “New 1,2,4-oxadiazole derivatives with positive mGlu4 receptor modulation activity and antipsychotic-like properties” (Journal of Enzyme Inhibition and Medicinal Chemistry, 2021).

In one data set the target is T1, CYP2C19 (Homo sapiens, UniProt P33261).
T1 construct: purchased Corning
Nature of the data set: inhibition of cytochrome P450 isoform activity (fluorescence screening). Type of data set: biochemical. The following applies: screening at 1.1, 3.3 and 10 µM. On the procedure: (§1) The assays for cytochrome P450 inhibition facilitate the identification of drug candidates with a lower potential for drug-drug interactions. In vitro experiments conducted to determine whether a drug inhibits a specific CYP enzyme involve an incubation of the drug with probe substrates for the CYP enzymes.
(§2) Recombinant cytochrome P450 isoforms available for the assay: CYP1A2, CYP2B6, CYP2C9, CYP2C19, CYP2D6 and CYP3A4 isoform with various probe substrates enabling fluorescence detection.
(§3) The examined compound was prepared as a 10 mM stock solution in DMSO. The following three concentrations of the test compound were used for screening determination: 1.1, 3.3 and 10 μM. […] Plates filled with solution of cofactors (NADP, G6P, MgCl2, G6PDH) as well as examined compound were scanned with a fluorescence plate reader in order to eliminate false results originating from autofluorescence of the test compounds. […] At the end of the incubation, the reaction was stopped and the fluorescence of the product was determined continuously with the specific for every product excitation as well as emission values with the use of multiwell plate scanner equipped with fluorescence measurement (Fluorescence EnSpire Multimode Plate Reader).

The next data set concerns the target T2, CYP2C9 (Homo sapiens, UniProt P11712).
T2 construct: purchased Corning
The description is as above. Type of data set: biochemical. Particulars: screening at 1.1, 3.3 and 10 µM. The method, then:
as §1, §2, §3

Data set [1] is described as follows: pharmacokinetic study, plasma and brain, after i.p. administration. Format: in vivo, mice (male Albino Swiss). The following applies: mouse, 10 mg/kg i.p.; for AUC / Cmax / half-life / Tmax: male, Albino Swiss, ip; for AUC: read-out: AUC (area under the curve); for Cmax: read-out: Cmax (maximum concentration); for half-life: read-out: T1/2 (terminal elimination half-life) (converted). The method, then: The pharmacokinetic properties and brain uptake of 52 were further determined in mice after i.p. administration. The compound was administered at a dose of 10 mg/kg in 3% DMSO + 20% Captisol in water. The concentration of 52 was monitored in the plasma and the brain at six time points over 6 h (Figure 5).
The method described below was successfully applied to a pharmacokinetic study of 52 in mice (male Albino Swiss) after i.p. injection. Compound 52 was administered to mice at a dose of 10 mg/kg i.p. At 0.25, 0.50, 1.0, 2.0, 4.0, and 6.0 h (three animals were used for one time point) the mice were anaesthetised by the use of Morbital (Biowet, Puławy, Poland), and the blood was collected from the portal vein to tubes containing 5% EDTA. The mice were then perfused with 0.1 M PBS to remove remaining blood from the body, and the brains were taken out for the analysis. Blood was centrifuged at 2000 rpm for 10 min at 4 °C, and the plasma was collected and frozen at −80 °C for further analysis. Plasma and tissue samples from all drug-treated animals were thawed at room temperature prior to use. Standard protocol of sample preparation: 200 µL of acetonitrile was added to the Eppendorf tubes with 50 µL of studied plasma samples or tissue homogenate. Samples were mixed for 5 min on a mixer at 25 °C and 1400 rpm. Tubes were then centrifuged at 2000 × g for 15 min at 4 °C. A total of 180 µL of each supernatant was transferred to a plate well. Finally, each sample was injected onto the LC-MS column. Calibration curve serial dilution method: Plasma was spiked with a standard at different concentrations. Acetonitrile was added. After mixing and centrifugation, the supernatant was collected.
Plasma and tissue samples from all drug-treated animals at selected time points were analysed using a previously developed non-validated LC-MS/MS method. […] LC-MS analysis was carried out on a Bruker amaZon SL mass spectrometer using positive/negative ion ESI mode. Chromatographic separation was achieved on an Ascentis Express C18 column (5 cm × 2.1 mm, […], Supelco Technologies) at room temperature with a thermostatted column oven. A gradient elution of eluents A (acetonitrile (LiChrosolv, Reag. Ph Eur) + 0.1% formic acid (Sigma Aldrich, 98–100%)) and B (water +0.1% formic acid) was used for separation. The flow rate was set at 1 ml/min. The injection volume was 20 µL, and the time of injection was 4 min.

The structures appear in SMILES notation. Like-named read-outs stand apart in the source and are kept apart here.

A word on the IC50: it is the concentration that gives 50% inhibition. The low end stands for inhibition by little substance, the high end for a need for much substance. For orientation: AUC means the area under the concentration-time curve, a measure of exposure.

T1 sequence (P33261 whole entry): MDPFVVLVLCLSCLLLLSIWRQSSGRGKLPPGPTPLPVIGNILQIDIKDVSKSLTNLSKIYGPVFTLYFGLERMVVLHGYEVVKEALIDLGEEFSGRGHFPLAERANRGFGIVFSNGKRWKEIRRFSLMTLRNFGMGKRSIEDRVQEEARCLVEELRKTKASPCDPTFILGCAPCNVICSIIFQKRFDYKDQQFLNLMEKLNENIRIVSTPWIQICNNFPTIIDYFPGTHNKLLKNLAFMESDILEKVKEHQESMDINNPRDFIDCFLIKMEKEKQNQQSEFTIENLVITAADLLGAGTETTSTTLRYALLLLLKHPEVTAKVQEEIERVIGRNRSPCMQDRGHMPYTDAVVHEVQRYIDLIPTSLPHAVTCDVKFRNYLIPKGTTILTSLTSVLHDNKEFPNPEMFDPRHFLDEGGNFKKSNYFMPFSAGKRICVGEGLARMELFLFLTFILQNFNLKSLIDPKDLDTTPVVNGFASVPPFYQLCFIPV
T2 sequence (P11712 whole entry): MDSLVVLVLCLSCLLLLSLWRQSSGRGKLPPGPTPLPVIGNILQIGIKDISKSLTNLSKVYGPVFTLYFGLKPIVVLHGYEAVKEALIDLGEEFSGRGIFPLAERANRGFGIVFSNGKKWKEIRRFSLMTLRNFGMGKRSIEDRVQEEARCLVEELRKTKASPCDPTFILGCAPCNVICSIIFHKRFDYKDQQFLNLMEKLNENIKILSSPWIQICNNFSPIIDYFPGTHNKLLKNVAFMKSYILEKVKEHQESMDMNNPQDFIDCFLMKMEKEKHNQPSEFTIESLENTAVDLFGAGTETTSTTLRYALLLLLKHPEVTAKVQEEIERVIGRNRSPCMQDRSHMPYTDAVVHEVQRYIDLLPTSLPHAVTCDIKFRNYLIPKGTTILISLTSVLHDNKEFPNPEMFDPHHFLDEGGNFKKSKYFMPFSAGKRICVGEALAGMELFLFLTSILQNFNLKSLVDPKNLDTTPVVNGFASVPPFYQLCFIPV

At CYP2C19, `O=C(Nc1ccc(-c2noc(-c3ccccc3Cl)n2)c(Cl)c1)c1ccccn1` [Compound 52, N-(3-chloro-4-(5-(2-chlorophenyl)-1,2,4-oxadiazol-3-yl)phenyl)picolinamide] displayed an IC50 of 3.3 to 10 µM. On CYP2C9, this compound yielded an IC50 of 3.3 to 10 µM. For the same compound, in data set [1] (brain), the maximum brain concentration was determined as 949.76 ng/mL, the AUC was determined as 5.64 µM·h, the Cmax worked out at 2120 nM and the half-life was 136 min. Moreover, in data set [1] (brain, read-out: Tmax (converted)), the Tmax is 30 min. Also, in data set [1] (plasma), the AUC was 0.37 µM·h, the Cmax worked out at 540 nM, the half-life was 66 min and the maximum plasma concentration stood at 243.22 ng/mL. Also, the Tmax in data set [1] (plasma, read-out: Tmax (time at maximum observed concentration)) turned out to be 15 min.
